From PMC5218480 (PLoS ONE, 2017)

Test system: MV-4-11 cells
Experiment: Gene expression microarray analysis (Affymetrix PrimeView) and GSEA
Format: cell-based, human
Design: RFU PODN (11730768_x_at) / Fold change /veh PODN (11730768_x_at) / RFU LINC00158 (11744669_a_at) / Fold change /veh LINC00158 (11744669_a_at) / RFU DUSP10 (11751237_a_at) / Fold change /veh DUSP10 (11751237_a_at) / RFU ID3 (11757404_x_at) / Fold change /veh ID3 (11757404_x_at) / RFU PLEKHG5 (11737974_s_at) / Fold change /veh PLEKHG5 (11737974_s_at) / RFU LRRC4B (11730491_at) / Fold change /veh LRRC4B (11730491_at) / RFU GIMAP4 (11747438_a_at) / Fold change /veh GIMAP4 (11747438_a_at) / RFU KRT8 (11758183_x_at) / Fold change /veh KRT8 (11758183_x_at) / RFU CNN1 (11734310_a_at) / Fold change /veh CNN1 (11734310_a_at) / RFU VPS37D (11726825_at) / Fold change /veh VPS37D (11726825_at) / RFU C10orf10 (11716522_x_at) / Fold change /veh C10orf10 (11716522_x_at) / RFU KIR2DL2 /// KIR2DL4 /// KIR2DL5A /// KIR2DL5B /// KIR2DS1 /// KIR2DS2 /// KIR2DS3 /// KIR2DS4 /// KIR3DL3 /// KIR3DL3 /// KIR3DS1 (11738374_at) / Fold change /veh KIR2DL2 /// KIR2DL4 /// KIR2DL5A /// KIR2DL5B /// KIR2DS1 /// KIR2DS2 /// KIR2DS3 /// KIR2DS4 /// KIR3DL3 /// KIR3DL3 /// KIR3DS1 (11738374_at) / RFU C1QL1 (11718748_at) / Fold change /veh C1QL1 (11718748_at) / RFU TMPRSS4 (11747572_a_at) / Fold change /veh TMPRSS4 (11747572_a_at) / RFU HAMP (11756126_x_at) / Fold change /veh HAMP (11756126_x_at) / RFU RNFT2 (11725882_a_at) / Fold change /veh RNFT2 (11725882_a_at) / RFU NR4A2 (11747474_a_at) / Fold change /veh NR4A2 (11747474_a_at) / RFU ABCC12 (11746883_a_at) / Fold change /veh ABCC12 (11746883_a_at) / RFU TMEM136 (11760407_x_at) / Fold change /veh TMEM136 (11760407_x_at) / RFU CLDN22 /// WWC2 (11732394_at) / Fold change /veh CLDN22 /// WWC2 (11732394_at) / RFU HLA-DPB1 (11760878_x_at) / Fold change /veh HLA-DPB1 (11760878_x_at) / RFU SPINT1 (11716480_a_at) / Fold change /veh SPINT1 (11716480_a_at) / RFU GAP43 (11754022_s_at) / Fold change /veh GAP43 (11754022_s_at) / RFU A4GNT (11735810_at) / Fold change /veh A4GNT (11735810_at) / RFU PRB3 (11715151_x_at) / Fold change /veh PRB3 (11715151_x_at) / RFU TUBB4B (11761932_at) / Fold change /veh TUBB4B (11761932_at) / RFU CAPN14 (11732068_a_at) / Fold change /veh CAPN14 (11732068_a_at) / RFU TMCC2 (11721928_a_at) / Fold change /veh TMCC2 (11721928_a_at) / RFU IRGQ (11745062_a_at) / Fold change /veh IRGQ (11745062_a_at) / RFU FAM174B (11720279_a_at) / Fold change /veh FAM174B (11720279_a_at) / RFU TMPRSS4 (11748680_a_at) / Fold change /veh TMPRSS4 (11748680_a_at) / RFU FAM212B (11763350_a_at) / Fold change /veh FAM212B (11763350_a_at) / RFU PLEKHG5 (11743358_a_at) / Fold change /veh PLEKHG5 (11743358_a_at) / RFU ZSCAN30 (11745921_a_at) / Fold change /veh ZSCAN30 (11745921_a_at) / RFU CMKLR1 (11741424_a_at) / Fold change /veh CMKLR1 (11741424_a_at) / RFU LOC101060620 /// MAPK8IP1 (11723275_at) / Fold change /veh LOC101060620 /// MAPK8IP1 (11723275_at) / RFU SPTSSB (11747773_x_at) / Fold change /veh SPTSSB (11747773_x_at) / RFU PRSS12 (11739890_at) / Fold change /veh PRSS12 (11739890_at) / RFU BIN1 (11741810_x_at) / Fold change /veh BIN1 (11741810_x_at) / RFU WNT11 (11732464_a_at) / Fold change /veh WNT11 (11732464_a_at) / RFU C10orf10 (11716521_a_at) / Fold change /veh C10orf10 (11716521_a_at) / RFU C5orf56 (11738089_at) / Fold change /veh C5orf56 (11738089_at) / RFU CYB561 (11721691_x_at) / Fold change /veh CYB561 (11721691_x_at) / RFU ANKRD19P (11752326_a_at) / Fold change /veh ANKRD19P (11752326_a_at) / RFU OR2T12 /// OR2T33 /// OR2T8 (11738714_s_at) / Fold change /veh OR2T12 /// OR2T33 /// OR2T8 (11738714_s_at) / RFU VCAN (11748164_a_at) / Fold change /veh VCAN (11748164_a_at) / RFU JSRP1 (11732532_at) / Fold change /veh JSRP1 (11732532_at) / RFU KRTAP10-11 (11738290_x_at) / Fold change /veh KRTAP10-11 (11738290_x_at) / RFU MYO3A (11730013_a_at) / Fold change /veh MYO3A (11730013_a_at) / RFU EBF3 (11725865_a_at) / Fold change /veh EBF3 (11725865_a_at) / RFU CAMK2N1 (11719241_x_at) / Fold change /veh CAMK2N1 (11719241_x_at) / RFU C5orf56 (11738088_a_at) / Fold change /veh C5orf56 (11738088_a_at) / RFU OLFML3 (11715873_a_at) / Fold change /veh OLFML3 (11715873_a_at) / RFU LOC100653217 /// NTM (11731650_a_at) / Fold change /veh LOC100653217 /// NTM (11731650_a_at) / RFU MAPK11 (11762145_a_at) / Fold change /veh MAPK11 (11762145_a_at) / RFU FIZ1 (11724087_x_at) / Fold change /veh FIZ1 (11724087_x_at) / RFU OASL (11726364_x_at) / Fold change /veh OASL (11726364_x_at) / RFU SOX15 (11748057_x_at) / Fold change /veh SOX15 (11748057_x_at) / RFU CD79A (11719716_a_at) / Fold change /veh CD79A (11719716_a_at) / RFU HIST1H1D (11736915_at) / Fold change /veh HIST1H1D (11736915_at) / RFU CASKIN2 (11723855_a_at) / Fold change /veh CASKIN2 (11723855_a_at) / RFU LOC730098 (11760151_x_at) / Fold change /veh LOC730098 (11760151_x_at) / RFU OR4N2 (11742367_at) / Fold change /veh OR4N2 (11742367_at) / RFU PRRT2 (11749266_a_at) / Fold change /veh PRRT2 (11749266_a_at) / RFU SNX32 (11753110_a_at) / Fold change /veh SNX32 (11753110_a_at) / RFU CDHR5 (11726645_a_at) / Fold change /veh CDHR5 (11726645_a_at) / RFU RCAN1 (11760418_a_at) / Fold change /veh RCAN1 (11760418_a_at) / RFU FAM167A (11723789_a_at) / Fold change /veh FAM167A (11723789_a_at) / RFU FAM26E (11764081_at) / Fold change /veh FAM26E (11764081_at) / RFU ISYNA1 (11749810_s_at) / Fold change /veh ISYNA1 (11749810_s_at) / RFU ACY1 (11761880_at) / Fold change /veh ACY1 (11761880_at) / RFU 11764098_at / Fold change /veh 11764098_at / RFU SAMD14 (11745864_x_at) / Fold change /veh SAMD14 (11745864_x_at) / RFU NPB (11741838_a_at) / Fold change /veh NPB (11741838_a_at) / RFU TMPRSS6 (11731388_a_at) / Fold change /veh TMPRSS6 (11731388_a_at) / RFU KRTAP10-2 (11738614_at) / Fold change /veh KRTAP10-2 (11738614_at) / RFU ARHGAP8 /// PRR5-ARHGAP8 (11727945_x_at) / Fold change /veh ARHGAP8 /// PRR5-ARHGAP8 (11727945_x_at) / RFU KRTAP5-7 /// NADSYN1 (11734609_at) / Fold change /veh KRTAP5-7 /// NADSYN1 (11734609_at) / RFU RASL12 (11751679_a_at) / Fold change /veh RASL12 (11751679_a_at) / RFU CDKN2B (11736163_a_at) / Fold change /veh CDKN2B (11736163_a_at) / RFU PRF1 (11729649_at) / Fold change /veh PRF1 (11729649_at) / RFU, ZNF638 /// ZNF638-IT1 / Fold change vs veh, ZNF638 /// ZNF638-IT1 / RFU, PANK3 / Fold change vs veh, PANK3 / RFU, SH3YL1 / Fold change vs veh, SH3YL1 / RFU, ZEB2 / Fold change vs veh, ZEB2 / RFU, NRIP1 / Fold change vs veh, NRIP1 / RFU, PTTG1IP / Fold change vs veh, PTTG1IP / RFU, CAPN2 / Fold change vs veh, CAPN2 / RFU, MED14 / Fold change vs veh, MED14 / RFU, SNORA58 / Fold change vs veh, SNORA58 / RFU, C1orf63 / Fold change vs veh, C1orf63 / RFU, LRRFIP1 / Fold change vs veh, LRRFIP1 / RFU, NDUFAF7 / Fold change vs veh, NDUFAF7 / RFU, SLC12A2 / Fold change vs veh, SLC12A2 / RFU, IBTK / Fold change vs veh, IBTK / RFU, ESF1 / Fold change vs veh, ESF1 / Fold change vs veh, TMEM50B / RFU, TAOK1 / Fold change vs veh, TAOK1 / RFU, ACBD3 / Fold change vs veh, ACBD3 / RFU, TMA16 / Fold change vs veh, TMA16 / RFU, RWDD3 / Fold change vs veh, RWDD3 / RFU, BCAT1 / Fold change vs veh, BCAT1 / RFU, EDEM3 / Fold change vs veh, EDEM3 / RFU, TMEM33 / Fold change vs veh, TMEM33 / RFU, WDR75 / Fold change vs veh, WDR75 / RFU, AHCTF1 / Fold change vs veh, AHCTF1 / RFU, TFRC / Fold change vs veh, TFRC / RFU, ZDHHC17 / Fold change vs veh, ZDHHC17 / RFU, NOM1 / Fold change vs veh, NOM1 / RFU, ARL8B / Fold change vs veh, ARL8B / RFU, ZBTB11 / Fold change vs veh, ZBTB11 / RFU, TAMM41 / Fold change vs veh, TAMM41 / RFU, KIAA1704 /// LOC100996395 / Fold change vs veh, KIAA1704 /// LOC100996395 / RFU, ING1 / Fold change vs veh, ING1 / RFU, TRMT61B / Fold change vs veh, TRMT61B / RFU, FUBP3 / Fold change vs veh, FUBP3 / RFU, TP53 / Fold change vs veh, TP53 / RFU, TNKS2 / Fold change vs veh, TNKS2 / RFU, ZFP14 / Fold change vs veh, ZFP14 / RFU, ACTR2 / Fold change vs veh, ACTR2 / RFU, PPP3R1 / Fold change vs veh, PPP3R1 / RFU, PIK3R1 / Fold change vs veh, PIK3R1 / RFU, HNRNPA1 / Fold change vs veh, HNRNPA1 / RFU, RNF170 / Fold change vs veh, RNF170 / RFU, ZNF28 / Fold change vs veh, ZNF28 / RFU, RNGTT / Fold change vs veh, RNGTT / RFU, OGT / Fold change vs veh, OGT / RFU, BRD1 / Fold change vs veh, BRD1 / RFU, MARS / Fold change vs veh, MARS / RFU, ZNF655 / Fold change vs veh, ZNF655 / RFU, FAHD1 / Fold change vs veh, FAHD1 / RFU, BDP1 / Fold change vs veh, BDP1 / RFU, LRRCC1 / Fold change vs veh, LRRCC1 / RFU, ARID1A / Fold change vs veh, ARID1A / RFU, ZNF146 / Fold change vs veh, ZNF146 / RFU, ZNF330 / Fold change vs veh, ZNF330 / RFU, GPN3 / Fold change vs veh, GPN3 / RFU, C9orf123 / Fold change vs veh, C9orf123 / RFU, N4BP2L2 / Fold change vs veh, N4BP2L2 / RFU, ARFIP1 / Fold change vs veh, ARFIP1 / RFU, FAM179B / Fold change vs veh, FAM179B / RFU, BCL10 / Fold change vs veh, BCL10 / RFU, UHRF1BP1L / Fold change vs veh, UHRF1BP1L / RFU, BET1 / Fold change vs veh, BET1 / RFU, CNOT2 / Fold change vs veh, CNOT2 / RFU, ZNF268 / Fold change vs veh, ZNF268 / Fold change vs veh, ZNF507 / RFU, DGCR2 / Fold change vs veh, DGCR2 / RFU, WDSUB1 / Fold change vs veh, WDSUB1 / Fold change vs veh, HSP90B1 /// MIR3652 / RFU, ADSS / Fold change vs veh, ADSS / RFU, GK / Fold change vs veh, GK / RFU, ZNF148 / Fold change vs veh, ZNF148 / RFU, TAF9 / Fold change vs veh, TAF9 / RFU, SLC1A5 / Fold change vs veh, SLC1A5 / RFU, SLMO2 / Fold change vs veh, SLMO2 / RFU, ABCC4 / Fold change vs veh, ABCC4 / RFU, LOC101060439 /// RAP1B / Fold change vs veh, LOC101060439 /// RAP1B / RFU, RFX7 / Fold change vs veh, RFX7 / RFU, GTPBP10 / Fold change vs veh, GTPBP10 / RFU, CNEP1R1 / Fold change vs veh, CNEP1R1 / RFU, BIVM-ERCC5 /// ERCC5 / Fold change vs veh, BIVM-ERCC5 /// ERCC5 / RFU, ILF3 / Fold change vs veh, ILF3 / RFU 11762660_at / Fold change /veh 11762660_at / RFU VCAN (11757783_s_at) / Fold change /veh VCAN (11757783_s_at) / RFU DDX43 (11728927_at) / Fold change /veh DDX43 (11728927_at) / RFU KRT8 (11758188_x_at) / Fold change /veh KRT8 (11758188_x_at) / RFU NKD1 (11759106_at) / Fold change /veh NKD1 (11759106_at) / RFU SRD5A1 (11742802_a_at) / Fold change /veh SRD5A1 (11742802_a_at) / RFU TPSAB1 /// TPSB2 (11721975_s_at) / Fold change /veh TPSAB1 /// TPSB2 (11721975_s_at) / RFU GSTM3 (11746129_a_at) / Fold change /veh GSTM3 (11746129_a_at) / RFU IL23R (11737362_x_at) / Fold change /veh IL23R (11737362_x_at) / RFU TMEM51 (11727254_a_at) / Fold change /veh TMEM51 (11727254_a_at) / RFU PIWIL2 (11732686_x_at) / Fold change /veh PIWIL2 (11732686_x_at) / RFU ORM1 (11744905_x_at) / Fold change /veh ORM1 (11744905_x_at) / RFU CCDC152 (11743942_at) / Fold change /veh CCDC152 (11743942_at) / RFU ECM1 (11717891_a_at) / Fold change /veh ECM1 (11717891_a_at) / RFU IL23R (11748794_a_at) / Fold change /veh IL23R (11748794_a_at) / RFU TNFAIP8L3 (11732012_x_at) / Fold change /veh TNFAIP8L3 (11732012_x_at) / RFU MBOAT4 (11741988_at) / Fold change /veh MBOAT4 (11741988_at) / RFU 11764193_at / Fold change /veh 11764193_at / RFU TMEM53 (11763286_at) / Fold change /veh TMEM53 (11763286_at) / RFU MAGEB2 (11727129_at) / Fold change /veh MAGEB2 (11727129_at) / RFU TMEM200A (11744735_a_at) / Fold change /veh TMEM200A (11744735_a_at) / RFU CCDC152 (11751479_a_at) / Fold change /veh CCDC152 (11751479_a_at) / RFU FAM211A (11726209_a_at) / Fold change /veh FAM211A (11726209_a_at) / RFU RGS16 (11746705_a_at) / Fold change /veh RGS16 (11746705_a_at) / RFU VCAN (11755009_s_at) / Fold change /veh VCAN (11755009_s_at) / RFU RHOB (11743442_s_at) / Fold change /veh RHOB (11743442_s_at) / RFU RGS16 (11720943_a_at) / Fold change /veh RGS16 (11720943_a_at) / RFU RGS16 (11720944_at) / Fold change /veh RGS16 (11720944_at) / RFU, VPS4B / Fold change vs veh, VPS4B / RFU, CREB1 / Fold change vs veh, CREB1 / RFU, DNAJC13 / Fold change vs veh, DNAJC13 / RFU, GNAQ / Fold change vs veh, GNAQ / RFU, CDK5R1 / Fold change vs veh, CDK5R1 / RFU, ZRANB3 / Fold change vs veh, ZRANB3 / RFU, CUL4A / Fold change vs veh, CUL4A / RFU, CCNY / Fold change vs veh, CCNY / RFU, UFL1 / Fold change vs veh, UFL1 / RFU, COG3 / Fold change vs veh, COG3 / RFU, DIAPH2 / Fold change vs veh, DIAPH2 / RFU, SKA2 / Fold change vs veh, SKA2 / RFU, AFF3 / Fold change vs veh, AFF3 / RFU, LMF1 / Fold change vs veh, LMF1 / RFU, IPO11 / Fold change vs veh, IPO11 / RFU, DFFB / Fold change vs veh, DFFB / RFU, FOXP1 / Fold change vs veh, FOXP1 / RFU, CARD8 / Fold change vs veh, CARD8 / RFU, STRN3 / Fold change vs veh, STRN3 / RFU, ADK / Fold change vs veh, ADK / RFU, RASSF2 / Fold change vs veh, RASSF2 / RFU, WIPF1 / Fold change vs veh, WIPF1 / RFU, LARP1B / Fold change vs veh, LARP1B / RFU, RASA1 / Fold change vs veh, RASA1 / RFU, RB1 / Fold change vs veh, RB1 / RFU, PPFIA1 / Fold change vs veh, PPFIA1 / RFU, MAT2A / Fold change vs veh, MAT2A / RFU, CCT5 / Fold change vs veh, CCT5 / RFU, WDR92 / Fold change vs veh, WDR92 / RFU, CUX1 / Fold change vs veh, CUX1 / RFU, TTC7A / Fold change vs veh, TTC7A / RFU, TMEM135 / Fold change vs veh, TMEM135 / RFU, DEPTOR / Fold change vs veh, DEPTOR / RFU, CPM / Fold change vs veh, CPM / RFU, DNAJB6 / Fold change vs veh, DNAJB6 / RFU, CACNA2D3 / Fold change vs veh, CACNA2D3 / RFU, DTX4 / Fold change vs veh, DTX4 / RFU, TFCP2 / Fold change vs veh, TFCP2 / RFU, GMCL1 /// GMCL1P1 / Fold change vs veh, GMCL1 /// GMCL1P1 / RFU, AEBP2 / Fold change vs veh, AEBP2 / RFU, SNHG1 /// SNORD22 /// SNORD25 /// SNORD26 /// SNORD27 /// SNORD28 /// SNORD29 /// SNORD31 / Fold change vs veh, SNHG1 /// SNORD22 /// SNORD25 /// SNORD26 /// SNORD27 /// SNORD28 /// SNORD29 /// SNORD31 / Fold change (Aza/veh), C12orf56 (ProbeSet 11735607_a_at) / Fold change (ACY-1035/veh), C12orf56 (ProbeSet 11735607_a_at) / Fold change (Aza/veh), FGFR1OP (ProbeSet 11751329_s_at) / Fold change (ACY-1035/veh), FGFR1OP (ProbeSet 11751329_s_at) / Fold change (Aza/veh), VPS36 (ProbeSet 11739960_a_at) / Fold change (ACY-1035/veh), VPS36 (ProbeSet 11739960_a_at) / RFU SYPL1 (11715823_x_at) / Fold change /veh SYPL1 (11715823_x_at) / RFU IGFBP7 (11715501_s_at) / Fold change /veh IGFBP7 (11715501_s_at) / RFU REEP3 (11722064_at) / Fold change /veh REEP3 (11722064_at) / RFU IGLL1 (11728026_x_at) / Fold change /veh IGLL1 (11728026_x_at): dose or concentration left out as unconfirmed
Details: ProbeSet 11719493_s_at; LIST B

Nc1ncn([C@@H]2O[C@H](CO)[C@@H](O)[C@H]2O)c(=O)n1 [azacitidine]
RFU, TAF9: 607.12 RFU
